{"source": "paper PMC10850145", "about": "“Hormonal steroids induce multidrug resistance and stress response genes in Neisseria gonorrhoeae by binding to MtrR” (Nature Communications, 2024)", "key": {"ngo1249-lacZ expression": {"system": "ngo1249-lacZ expression", "experiment": "β-galactosidase assay, ngo1249-lacZ fusion (negative control gene)", "conditions": "WT-NGO1249-lacZ, 100 µM hormone"}, "[1]": {"biological_target": "T1, MtrR binding to rpoH operator (27mer) (Neisseria gonorrhoeae, UniProt P39897)", "T1 construct": "Hexa-histidine tag with TEV protease cleavage site (N, cleaved yes); made in house; host or cells: E. coli Rosetta Gami B(DE3) pLysS", "experiment": "Plate-based fluorescence polarization DNA-binding assay, rpoH operator", "conditions": "for fluorescence polarization, plate-based MtrR titration: rpoH 27mer + 125µM", "protocol": "(§1) To analyze the effect of ethinyl estradiol on DNA binding by MtrR, fluorescence polarization DNA-binding data were collected in 96-well plates (Costar #3915 black, flat bottom). with a SpectraMax M5e Microplate Reader (Molecular Devices) and analyzed with Prism (Graphpad Software, version 10.0.0). Purified MtrR was buffer exchanged into “DNA” binding buffer (150 mM NaCl, 20 mM Tris-HCl pH 7.5, 2.5% glycerol, 1 mM TCEP). […] The binding affinity of protein for DNA was determined using the Morrison’s quadratic equation[72]. BSA and dI-dC are included as carriers and to control for nonspecific DNA binding. Samples were excited at 485 nm and polarized emissions measured at 525 nm, with a 515 nm cutoff. Controls were run with no protein (DNA ± methanol, ethinyl estradiol) to ensure that millipolarization values were not affected by experimental conditions alone. At least three independent experimental measurements were averaged for each reported binding constant.\n(§2) Figure S2: Presence of Ethinyl Estradiol influences binding of MtrR to rpoH and mtrCDE operators. Plate based Fluorescence polarization DNA-binding isotherms reveal decreases in the binding affinity of MtrR for the rpoH and mtrCDE operators in the presence of ethinyl estradiol.\n(§3) Experiments were run on the three independent experimental measurements were averaged for each reported binding constant. Data are represented by the mean values (point) +/- SEM (error"}, "mtrC-lacZ expression": {"system": "mtrC-lacZ expression", "format": "cell-based, Neisseria gonorrhoeae", "conditions": "only when strain produced wild-type MtrR"}, "[2]": {"biological_target": "T2, MtrR binding to mtrCDE operator (21mer) (Neisseria gonorrhoeae, UniProt P39897)", "T2 construct": "Hexa-histidine tag with TEV protease cleavage site (N, cleaved yes); made in house; host or cells: E. coli Rosetta Gami B(DE3) pLysS", "experiment": "Plate-based fluorescence polarization DNA-binding assay, mtrCDE operator", "conditions": "mtrCDE 21mer + 125µM", "protocol": "as §1, §2, §3"}, "MtrR W136A": {"biological_target": "T3, MtrR W136A (Neisseria gonorrhoeae, UniProt P39897, W136A)", "T3 construct": "Hexa-histidine tag with TEV protease cleavage site (N, cleaved yes); made in house; host or cells: E. coli Rosetta Gami B(DE3) pLysS", "T3 sequence (P39897 whole entry W136A)": "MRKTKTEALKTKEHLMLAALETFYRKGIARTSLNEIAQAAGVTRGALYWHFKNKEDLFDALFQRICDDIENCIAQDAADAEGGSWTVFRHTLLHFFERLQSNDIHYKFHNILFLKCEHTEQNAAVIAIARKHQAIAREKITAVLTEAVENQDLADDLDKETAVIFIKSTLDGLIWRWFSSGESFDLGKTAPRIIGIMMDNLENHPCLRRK", "experiment": "biochemical", "format": "binding", "conditions": "ITC"}, "rpoH-lacZ expression": {"system": "rpoH-lacZ expression", "format": "cell-based, Neisseria gonorrhoeae", "conditions": "only when strain produced wild-type MtrR"}, "MtrR D171A": {"biological_target": "T4, MtrR D171A (Neisseria gonorrhoeae, UniProt P39897, D171A)", "T4 construct": "Hexa-histidine tag with TEV protease cleavage site (N, cleaved yes); made in house; host or cells: E. coli Rosetta Gami B(DE3) pLysS", "T4 sequence (P39897 whole entry D171A)": "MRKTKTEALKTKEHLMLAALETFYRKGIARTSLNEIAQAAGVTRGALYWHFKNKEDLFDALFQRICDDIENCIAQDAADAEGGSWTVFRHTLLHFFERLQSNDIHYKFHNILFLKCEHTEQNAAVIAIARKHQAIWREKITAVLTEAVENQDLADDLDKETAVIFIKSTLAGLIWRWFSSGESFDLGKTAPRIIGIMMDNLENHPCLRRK", "experiment": "biochemical", "format": "binding", "conditions": "ITC"}, "MtrR [3]": {"biological_target": "T5, MtrR (Neisseria gonorrhoeae, UniProt P39897)", "T5 construct": "Hexa-histidine tag with TEV protease cleavage site (N, cleaved yes); made in house; host or cells: E. coli Rosetta Gami B(DE3) pLysS", "experiment": "Isothermal titration calorimetry, ligand binding to MtrR WT", "conditions": "ITC"}, "MtrR [4]": {"biological_target": "T5, MtrR", "set-up": "method as in PMID 31331979", "conditions": "cited from earlier work"}}, "note": "Where “and” joins values, the source holds several entries; their conditions need not be identical. Identical values can stand only once. Entries after “also recorded” stand apart in the source; their conditions may differ.", "data": [{"smiles": "CC12CCC3c4ccc(O)cc4CCC3C1CCC2O", "note": "(stereo not drawn) [Beta-Estradiol]", "values": [{"measurement": "Mean Miller units", "setting": "ngo1249-lacZ expression", "result": 4.6, "unit": "Miller units"}]}, {"smiles": "C#C[C@]1(O)CC[C@H]2[C@@H]3CCc4cc(O)ccc4[C@H]3CC[C@@]21C", "note": "[Ethinyl Estradiol, ethinyl estradiol]", "values": [{"measurement": "change in binding affinity of MtrR for rpoH operator", "setting": "[1]; presence of ethinyl estradiol, 125 µM", "result": "decreases in"}, {"measurement": "fluorescence polarization, plate-based MtrR titration", "setting": "[1]; MtrR WT dimer 0 nM", "result": 0, "unit": "mP"}, {"measurement": "fluorescence polarization, plate-based MtrR titration", "setting": "[1]; MtrR WT dimer 9.4 nM", "result": "5 mP and 3 mP and 4 mP"}, {"measurement": "fluorescence polarization, plate-based MtrR titration", "setting": "[1]; MtrR WT dimer 25 nM", "result": "10 mP and 5 mP"}, {"measurement": "fluorescence polarization, plate-based MtrR titration", "setting": "[1]; MtrR WT dimer 37.5 nM", "result": "12 mP and 10 mP and 16 mP"}, {"measurement": "fluorescence polarization, plate-based MtrR titration", "setting": "[1]; MtrR WT dimer 50 nM", "result": "21 mP and 17 mP and 16 mP"}, {"measurement": "fluorescence polarization, plate-based MtrR titration", "setting": "[1]; MtrR WT dimer 75 nM", "result": "25 mP and 18 mP and 24 mP"}, {"measurement": "fluorescence polarization, plate-based MtrR titration", "setting": "[1]; MtrR WT dimer 100 nM", "result": "29 mP and 24 mP"}, {"measurement": "fluorescence polarization, plate-based MtrR titration", "setting": "[1]; MtrR WT dimer 150 nM", "result": "36 mP and 29 mP and 33 mP"}, {"measurement": "fluorescence polarization, plate-based MtrR titration", "setting": "[1]; MtrR WT dimer 200 nM", "result": "40 mP and 31 mP and 33 mP"}, {"measurement": "fluorescence polarization, plate-based MtrR titration", "setting": "[1]; MtrR WT dimer 300 nM", "result": "44 mP and 39 mP and 40 mP"}, {"measurement": "fluorescence polarization, plate-based MtrR titration", "setting": "[1]; MtrR WT dimer 400 nM", "result": "48 mP and 37 mP and 40 mP"}, {"measurement": "fluorescence polarization, plate-based MtrR titration", "setting": "[1]; MtrR WT dimer 600 nM", "result": "50 mP and 42 mP and 51 mP"}, {"measurement": "fluorescence polarization, plate-based MtrR titration", "setting": "[1]; MtrR WT dimer 800 nM", "result": "50 mP and 44 mP and 53 mP"}, {"measurement": "induction of mtrC expression", "setting": "mtrC-lacZ expression", "result": "could induce expression"}, {"measurement": "fluorescence polarization, plate-based MtrR titration", "setting": "[2]; MtrR WT dimer 0 nM", "result": 0, "unit": "mP"}, {"measurement": "fluorescence polarization, plate-based MtrR titration", "setting": "[2]; MtrR WT dimer 37.5 nM", "result": "6 mP and 5 mP"}, {"measurement": "fluorescence polarization, plate-based MtrR titration", "setting": "[2]; MtrR WT dimer 75 nM", "result": "9 mP and 8 mP and 10 mP"}, {"measurement": "fluorescence polarization, plate-based MtrR titration", "setting": "[2]; MtrR WT dimer 100 nM", "result": "11 mP and 12 mP"}, {"measurement": "fluorescence polarization, plate-based MtrR titration", "setting": "[2]; MtrR WT dimer 150 nM", "result": "12 mP and 15 mP and 13 mP"}, {"measurement": "fluorescence polarization, plate-based MtrR titration", "setting": "[2]; MtrR WT dimer 200 nM", "result": "18 mP and 21 mP and 16 mP"}, {"measurement": "fluorescence polarization, plate-based MtrR titration", "setting": "[2]; MtrR WT dimer 300 nM", "result": "28 mP and 21 mP"}, {"measurement": "fluorescence polarization, plate-based MtrR titration", "setting": "[2]; MtrR WT dimer 400 nM", "result": "26 mP and 30 mP and 27 mP"}, {"measurement": "fluorescence polarization, plate-based MtrR titration", "setting": "[2]; MtrR WT dimer 600 nM", "result": "31 mP and 27 mP and 29 mP"}, {"measurement": "fluorescence polarization, plate-based MtrR titration", "setting": "[2]; MtrR WT dimer 800 nM", "result": "33 mP and 36 mP and 34 mP"}, {"measurement": "binding to MtrR W136A compared with wild type", "setting": "MtrR W136A", "result": "tolerates binding"}, {"measurement": "induction of rpoH expression", "setting": "rpoH-lacZ expression", "result": "could induce expression"}, {"measurement": "binding to MtrR D171A", "setting": "MtrR D171A", "result": "no observable binding"}, {"measurement": "binding stoichiometry N (ligand per MtrR)", "setting": "MtrR [3]", "result": "~ 1"}, {"measurement": "Kd", "setting": "MtrR [3]; 25 °C, 1% MeOH, read-out: equilibrium dissociation constant (Kd), MtrR WT", "result": "940 nM and ~940 nM"}]}, {"smiles": "CC[C@H]1OC(=O)[C@H](C)[C@@H](O[C@H]2C[C@@](C)(OC)[C@@H](O)[C@H](C)O2)[C@H](C)[C@@H](O[C@@H]2O[C@H](C)C[C@H](N(C)C)[C@H]2O)[C@](C)(O)C[C@@H](C)CN(C)[C@H](C)[C@@H](O)[C@]1(C)O", "note": "[azithromycin]", "values": [{"measurement": "binding to MtrR WT", "setting": "MtrR [3]", "result": "no binding; also recorded: does not bind"}]}, {"smiles": "C[C@H](CCC(=O)O)[C@H]1CC[C@H]2[C@@H]3[C@H](O)C[C@@H]4C[C@H](O)CC[C@]4(C)[C@H]3CC[C@]12C", "note": "[chenodeoxycholate]", "values": [{"measurement": "MtrR binding and induction", "setting": "MtrR [4]", "result": "binds and is induced by"}]}, {"smiles": "CC(C)CCC[C@@H](C)[C@H]1CC[C@H]2[C@@H]3CC=C4C[C@@H](O)CC[C@]4(C)[C@H]3CC[C@]12C", "note": "[cholesterol]", "values": [{"measurement": "binding to MtrR WT", "setting": "MtrR [3]", "result": "no binding"}]}, {"smiles": "C[C@]12CCC(=O)C=C1CC[C@@H]1[C@@H]2[C@@H](O)C[C@@]2(C)[C@H]1CC[C@]2(O)C(=O)CO", "note": "[cortisol]", "values": [{"measurement": "binding to MtrR WT", "setting": "MtrR [3]", "result": "no binding"}]}, {"smiles": "C[C@H](CCC(=O)NCCS(=O)(=O)O)[C@H]1CC[C@H]2[C@@H]3CC[C@@H]4C[C@H](O)CC[C@]4(C)[C@H]3C[C@H](O)[C@]12C", "note": "[taurodeoxycholate]", "values": [{"measurement": "MtrR binding and induction", "setting": "MtrR [4]", "result": "binds and is induced by"}]}]}
